The text below walks through data of US20080275078A1, “Pyrazolo[3,4-B] Pyridine Compounds and Their Use as Pde4 Inhibitors” (Glaxo Group Limited, priority 2004, published 2008).

The target of experiment [1] is T1, PDE4B (human recombinant) (Homo sapiens, UniProt Q07343).
T1 construct: made in house; host or cells: Saccharomyces cerevisiae strain GL62 (PDE-deficient yeast), 100,000xg supernatant of cell lysate, as described in WO 94/20079
Kind of experiment: Inhibition of PDE4B activity (SPA or FP assay). The format is biochemical. The conditions noted are these: SPA or FP assay or similar; n=1 or average of 2 or more readings; range given for the listed group of Examples; read-out: PDE4B pIC50 (±about 0.5) (converted). From the text:
Human recombinant PDE4B, in particular the 2B splice variant thereof (HSPDE4B2B), is disclosed in WO 94/20079 and also M. M. McLaughlin et al., “A low Km, rolipram-sensitive, cAMP-specific phosphodiesterase from human brain: cloning and expression of cDNA, biochemical characterisation of recombinant protein, and tissue distribution of mRNA”, J. Biol. Chem., 1993, 268, 6470-6476. For example, in Example 1 of WO 94/20079, human recombinant PDE4B is described as being expressed in the PDE-deficient yeast Saccharomyces cerevisiae strain GL62, e.g. after induction by addition of 150 uM CuSO4, and 100,000×g supernatant fractions of yeast cell lysates are described for use in the harvesting of PDE4B enzyme.
The ability of compounds to inhibit catalytic activity at PDE4B or 4D (human recombinant), PDE3 (from bovine aorta), PDE5 (human recombinant) or PDE6 (from bovine retina) can optionally be determined by Scintillation Proximity Assay (SPA) in a 96-well format. • Test compounds (as a solution in DMSO, preferably about 2 microlitre (ul) volume of DMSO solution) are preincubated at ambient temperature (room temperature, e.g. 19-23° C.) in Wallac Isoplates (code 1450-514) with PDE enzyme in 50 mM Tris-HCl buffer pH 7.5, 8.3 mM MgCl2, 1.7 mM EGTA, 0.05% (w/v) bovine serum albumin for 10-30 minutes (usually 30 minutes). The enzyme concentration is adjusted so that no more than 20% hydrolysis of the substrate defined below occurs in control wells without compound, during the incubation. For the PDE3, PDE4B and PDE4D assays, [5′,8-^3H]Adenosine 3′,5′-cyclic phosphate (Amersham Pharmacia Biotech, code TRK.559; or Amersham Biosciences UK Ltd, Pollards Wood, Chalfont St Giles, Buckinghamshire HP8 4SP, UK) is added to give 0.05 uCi per well and about 10 nM final concentration. For the PDE5 and PDE6 assays, [8-^3H]Guanosine 3′,5′-cyclic phosphate (Amersham Pharmacia Biotech, code TRK.392) is added to give 0.05 uCi per well and about 36 nM final concentration. Plates containing assay mixture, preferably approx. 100 ul volume of assay mixture, are mixed on an orbital shaker for 5 minutes and incubated at ambient temperature for 1 hour. Phosphodiesterase SPA beads (Amersham Pharmacia Biotech, code RPNQ 0150) are added (about 1 mg per well) to terminate the assay. Plates are sealed and shaken and allowed to stand at ambient temperature for 35 minutes to 1 hour (preferably 35 minutes) to allow the beads to settle. Bound radioactive product is measured using a WALLAC TRILUX 1450 Microbeta scintillation counter. For inhibition curves, 10 concentrations (e.g. 1.5 nM-30 uM) of each compound are assayed. Curves are analysed using ActivityBase and XLfit (ID Business Solutions Limited, 2 Ocean Court, Surrey Research Park, Guildford, Surrey GU2 7QB, United Kingdom) Results are expressed as pIC50 values.
The ability of compounds to inhibit catalytic activity at PDE4B (human recombinant) or PDE4D (human recombinant) can optionally be determined by IMAP Fluorescence Polarisation (FP) assay (IMAP Explorer kit, available from Molecular Devices Corporation, Sunnydale, Calif., USA; Molecular Devices code: R8062) in a 384-well format.
The IMAP FP assay is able to measure PDE activity in an homogenous, non-radioactive assay format. The FP assay uses the ability of immobilised trivalent metal cations, coated onto nanoparticles (tiny beads), to bind the phosphate group of Fl-AMP that is produced on the hydrolysis of fluorescein-labelled (Fl) cyclic adenosine mono-phosphate (Fl-cAMP) to the non-cyclic Fl-AMP form. […] Binding of Fl-AMP product to the beads (coated with the immobilised trivalent cations) slows the rotation of the bound Fl-AMP and leads to an increase in the fluorescence polarisation ratio of parallel to perpendicular light. Inhibition of the PDE reduces/inhibits this signal increase. […]

Experiment [2] relates to dinitrofluorobenzene (DNFB)-induced delayed type hypersensitivity (DTH) response in pigs. Kind of experiment: In Vivo Assay A: pig model of atopic dermatitis, skin topical administration. The conditions noted are these: 1% (w/w) cream formulation; p<0.05 by ANOVA. The text has this:
The pig DTH (delayed type hypersensitivity) model of contact hypersensitivity utilizes the Th2-mediated inflammatory response in pig skin to mimic the pathology of atopic dermatitis in humans. The model measures the potential anti-inflammatory effect of compounds, topically-applied to the skin, on the acute DTH (delayed type hypersensitivity) response in castrated male Yorkshire pigs.
In general in the assay, pigs (domestic Yorkshire pigs, 15-18 kg at time of sensitization, castrated males) are first sensitized by topical application of ca. 10% (w/v) dinitrofluorobenzene (DNFB) dissolved in DMSO:acetone:olive oil (ca. 1:5:3) (ca. 40 mg DNFB, 400 microlitre solution total) to the ears (outer) and groin (inner). The pigs are then challenged 12 days later with ca. 0.6% (w/v) DNFB applied to randomized sites on the shaved back of the pigs (ca. 90 micrograms/site; sites are identified and numbered by grid made with marking pen).
On the day of challenge, the treatments are performed at the challenge sites at about 2 hours prior to and about 6 hours after challenge (for DMSO/acetone solutions/suspensions containing the PDE4 inhibitor, to maximize exposure to drug), or at about 30 minutes after and about 6 hours after challenge (for topical ointments or creams containing the PDE4 inhibitor, representing a more clinically relevant treatment protocol).
One day (about 24 hrs) after challenge, and optionally again at ca. 48 hrs post challenge, test sites are visually evaluated for intensity and extent of erythema by measuring the diameter of the reaction at its widest point and assigning scores of 0 to 4 for each of erythema intensity and erythema extent. Induration (a measure of swelling) is also scored 0 to 4. Scores for erythema intensity, erythema extent and induration are assigned according to the following criteria: Intensity of Erythema: 0=normal, 1=minimal, barely visible, 2=mild, 3=moderate, 4=severe. Extent of Erythema (not raised): 0=no edema, 1=macules of pin head size, 2=lentil sized macules, 3=confluent macules, 4=diffuse over entire site. Induration (palpable): 0=normal, 1=nodules of pin head size, 2=doughy lentil sized nodules, 3=confluent firm nodules, 4=diffuse hard lesion. The summed visual score at ca. 24 hours includes the individual scores for erythema intensity, erythema extent, and induration; so the maximal summed score for each site would be 12. High summed scores can generally indicate a high inflammatory response. Visual scores are subject to some inaccuracy/error.
Differences in the summed score between adjacent control (placebo) and treatment sites on the grids are calculated. This difference value is then used to determine the percent inhibition compared to the summed score for the control (placebo) sites. The more negative the difference value, the greater the calculated inhibition. Percent inhibition of (percent inhibition compared to) the mean summed score can be calculated.
About 24 hours after challenge, treatment sites can optionally also be visually evaluated for lesion area.
The anti-inflammatory effect of the compound 4-{[1-(aminocarbonyl)-4-piperidinyl]amino}-N-[(3,4-dimethylphenyl)methyl]-1-ethyl-1H-pyrazolo[3,4-b]pyridine-5-carboxamide (“Example 2 or 2A compound”), applied topically to the skin, on the acute DTH response in castrated male Yorkshire pigs is compared to that of another PDE4 inhibitor cipamfylline (BRL-61063) and the topical immunomodulator pimecrolimus.
In the above assay, the Example 2 or 2A compound is topically administered: either (A) at ca. 2.5% (w/v) concentration in a solution of ca. 10% DMSO/90% acetone (ca. 50 microlitres or ca. 1.5 mg/site) at about 2 hours prior to and about 6 hours after the DNFB challenge; or (B) at ca. 0.5% (w/w) concentration in an ointment containing propylene glycol (PG)* (ca. 25 mg of formulation/site) at about 30 minutes after and about 6 hours after the DNFB challenge. […]

T1 sequence (Q07343 1-564 isoform Q07343-2): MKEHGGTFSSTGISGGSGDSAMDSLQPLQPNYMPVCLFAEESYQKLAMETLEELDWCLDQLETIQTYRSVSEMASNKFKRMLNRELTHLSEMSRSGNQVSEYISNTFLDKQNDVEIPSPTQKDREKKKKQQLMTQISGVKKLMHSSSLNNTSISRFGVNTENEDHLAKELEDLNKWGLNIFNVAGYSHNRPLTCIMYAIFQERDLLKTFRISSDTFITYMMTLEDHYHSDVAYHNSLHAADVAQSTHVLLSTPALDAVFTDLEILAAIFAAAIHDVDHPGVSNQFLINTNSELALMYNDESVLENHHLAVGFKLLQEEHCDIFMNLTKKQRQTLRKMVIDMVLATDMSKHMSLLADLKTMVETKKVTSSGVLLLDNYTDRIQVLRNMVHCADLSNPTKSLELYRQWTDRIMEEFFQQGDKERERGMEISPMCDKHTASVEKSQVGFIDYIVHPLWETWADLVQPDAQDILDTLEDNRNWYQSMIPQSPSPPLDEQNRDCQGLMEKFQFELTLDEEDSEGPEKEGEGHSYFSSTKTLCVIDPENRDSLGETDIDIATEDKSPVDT

On to `CCn1ncc2c(NC3CCN(C(N)=O)CC3)c(C(=O)NCc3ccc(C)cc3C)cnc21` [Example 1, 4-{[1-(aminocarbonyl)-4-piperidinyl]amino}-N-[(2,4-dimethylphenyl)methyl]-1-ethyl-1H-pyrazolo[3,4-b]pyridine-5-carboxamide], for which the IC50 in experiment [1] was 0.631 to 0.794 nM.
Regarding `CCn1ncc2c(NC3CCN(C(N)=O)CC3)c(C(=O)NCc3ccc(OC)cc3)cnc21` [Example 3, 4-{[1-(aminocarbonyl)-4-piperidinyl]amino}-1-ethyl-N-{[4-(methyloxy)phenyl]methyl}-1H-pyrazolo[3,4-b]pyridine-5-carboxamide], in experiment [1], the IC50 was 1 to 3.16 nM.
Consider `CCn1ncc2c(NC3CCC(C(N)=O)CC3)c(C(=O)NCc3ccc(C)c(C)c3)cnc21` (centres unmarked) [Example 4, 4-{[4-(aminocarbonyl)cyclohexyl]amino}-N-[(3,4-dimethylphenyl)methyl]-1-ethyl-1H-pyrazolo[3,4-b]pyridine-5-carboxamide], for which, in experiment [1], the IC50 is 1 to 3.16 nM.
The same measure, in the same setting: the figure for `CCn1ncc2c(NC3CCC(C(N)=O)CC3)c(C(=O)NCc3ccc(C)cc3C)cnc21` (centres unmarked) [Example 5, 4-{[4-(aminocarbonyl)cyclohexyl]amino}-N-[(2,4-dimethylphenyl)methyl]-1-ethyl-1H-pyrazolo[3,4-b]pyridine-5-carboxamide] is 1 to 3.16 nM.
Still for that read-out and setting: the figure for `CCn1ncc2c(N[C@H]3CC[C@@H](C(N)=O)CC3)c(C(=O)NCc3ccc(C)c(C)c3)cnc21` [Example 8, 4-{[cis-4-(aminocarbonyl)cyclohexyl]amino}-N-[(3,4-dimethylphenyl)methyl]-1-ethyl-1H-pyrazolo[3,4-b]pyridine-5-carboxamide] is 1 to 3.16 nM; for `CCn1ncc2c(N[C@H]3CC[C@H](C(N)=O)CC3)c(C(=O)NCc3ccc(C)c(C)c3)cnc21` [Example 9, 4-{[trans-4-(aminocarbonyl)cyclohexyl]amino}-N-[(3,4-dimethylphenyl)methyl]-1-ethyl-1H-pyrazolo[3,4-b]pyridine-5-carboxamide] it is 158 to 200 nM.
Consider `CCn1ncc2c(N[C@H]3CC[C@@H](C(N)=O)CC3)c(C(=O)NCc3ccc(C)cc3C)cnc21` [Example 45, 4-{[cis-4-(aminocarbonyl)cyclohexyl]amino}-N-[(2,4-dimethylphenyl)methyl]-1-ethyl-1H-pyrazolo[3,4-b]pyridine-5-carboxamide], for which, in experiment [1], the IC50 is 1.26 to 5.01 nM.
Still for that read-out and setting: the figure for `CCn1ncc2c(N[C@H]3CC[C@H](C(N)=O)CC3)c(C(=O)NCc3ccc(C)cc3C)cnc21` [Example 46, 4-{[trans-4-(aminocarbonyl)cyclohexyl]amino}-N-[(2,4-dimethylphenyl)methyl]-1-ethyl-1H-pyrazolo[3,4-b]pyridine-5-carboxamide] is 158 to 200 nM.
Still for that read-out and setting: with `CCn1ncc2c(N[C@H]3CC[C@@H](C(N)=O)CC3)c(C(=O)NCc3ccc(OC)cc3)cnc21` [Example 47, 4-{[cis-4-(aminocarbonyl)cyclohexyl]amino}-1-ethyl-N-{[4-(methyloxy)phenyl]methyl}-1H-pyrazolo[3,4-b]pyridine-5-carboxamide] the figure was 1.26 to 5.01 nM.
As to `CCn1ncc2c(N[C@H]3CCN(C(N)=O)C3)c(C(=O)NCc3ccc(C)cc3C)cnc21` [Example 69, 4-{[(3S)-1-(aminocarbonyl)-3-pyrrolidinyl]amino}-N-[(2,4-dimethylphenyl)methyl]-1-ethyl-1H-pyrazolo[3,4-b]pyridine-5-carboxamide], the IC50 in experiment [1] is around 10 nM.
Consider `CCn1ncc2c(N[C@H]3CCN(C(N)=O)C3)c(C(=O)NCc3ccc(C)c(C)c3)cnc21` [Example 70, 4-{[(3S)-1-(aminocarbonyl)-3-pyrrolidinyl]amino}-N-[(3,4-dimethylphenyl)methyl]-1-ethyl-1H-pyrazolo[3,4-b]pyridine-5-carboxamide], for which the IC50 in experiment [1] is around 10 nM.
Turning to `CCn1ncc2c(N[C@@H]3CCN(C(N)=O)C3)c(C(=O)NCc3ccc(C)cc3C)cnc21` [Example 71, 4-{[(3R)-1-(aminocarbonyl)-3-pyrrolidinyl]amino}-N-[(2,4-dimethylphenyl)methyl]-1-ethyl-1H-pyrazolo[3,4-b]pyridine-5-carboxamide], the IC50 in experiment [1] is 31.6 to 100 nM.
For the molecule `CCn1ncc2c(N[C@@H]3CCN(C(N)=O)C3)c(C(=O)NCc3ccc(C)c(C)c3)cnc21` [Example 72, 4-{[(3R)-1-(aminocarbonyl)-3-pyrrolidinyl]amino}-N-[(3,4-dimethylphenyl)methyl]-1-ethyl-1H-pyrazolo[3,4-b]pyridine-5-carboxamide], in experiment [1], the IC50 is 31.6 to 100 nM.
For `CC[C@@H]1/C=C(\C)C[C@H](C)C[C@H](OC)[C@H]2O[C@@](O)(C(=O)C(=O)N3CCCC[C@H]3C(=O)O[C@H](/C(C)=C/[C@@H]3CC[C@H](Cl)[C@H](OC)C3)[C@H](C)[C@@H](O)CC1=O)[C@H](C)C[C@@H]2OC` [pimecrolimus, reference compound], the “inhibition of the summed scores” value in experiment [2] was “about 29%”.
